According to US11786534B2 (TAIHO PHARMACEUTICAL CO., LTD., priority 2019, dated 2023):
pIC50: −log10 of the molar value. Where two headings read alike, the source gives them in different places.

Columns and labels:
[1] = target: Ba/F3-EGFR (WT) (Homo sapiens, UniProt P00533); experiment: Growth inhibition of cell line expressing wild-type EGFR; assay type: cell-based, mouse; settings: read-out: BaF3_EGFR (WT) IC50 value
Excerpt: (§1) Test for inhibitory activity against the growth of cell lines expressing wild-type and mutated EGFRs (in vitro)
(§2) (1) Mouse cell line Ba/F3-EGFR (d746-750/T790M/C797S) transfected with and stably expressing EGFR (d746-750/T790M/C797S), mouse cell Ba/F3-EGFR (L858R/T790M/C797S) transfected with and stably expressing EGFR (L858R/T790M/C797S), and mouse cell line Ba/F3-EGFR (WT) transfected with and stably expressing wild-type EGFR were each suspended in RPMI-1640 cell culture medium (RPMI-1640, 10% FBS, 100 unit/ml penicillin, 0.1 mg/ml streptomycin). In the case of the mouse cell line Ba/F3-EGFR (WT), RPMI-1640 cell culture medium containing EGF at a final concentration of 50 ng/ml was used to suspend this cell line. It should be noted that the mouse cell line Ba/F3-EGFR (d746-750/T790M/C797S) transfected with and stably expressing EGFR (d746-750/T790M/C797S), the mouse cell line Ba/F3-EGFR (L858R/T790M/C797S) transfected with and stably expressing EGFR (L858R/T790M/C797S) and the mouse cell line Ba/F3-EGFR (WT) transfected with and stably expressing wild-type EGFR were prepared by using nucleotide sequences encoding the proteins of SEQ ID NOs: 1 and 2 in accordance with Test Example 1 in WO2018/079310, These cell suspensions were seeded in wells of 96-well flat -bottomed plates. The compounds of the present invention were dissolved in DMSO, and serial dilutions of these test compounds were prepared with DMSO (1000-fold of the final concentration). Each test compound solution in DMSO or DMSO alone was diluted with RPMI-1640 cell culture medium for each cell line, and this dilution was added to wells of the cell culture plate such that the final concentration of DMSO was 0.1%, followed by culture at 37° C. for 3 days in a 5% carbon dioxide gas-containing incubator. Before and after addition of each test compound solution in DMSO, the number of cells was counted using the CellTiter-Glo® system (Promega) on the basis of the protocol recommended by Promega.
(§3) In each cell line, the rate of cell growth inhibition was calculated according to the equation shown below in wells to which each test compound was added at different concentrations. Moreover, the inhibition rate at each concentration was plotted for each test compound, and the concentration of each test compound required to give 50% cell survival rate, i.e., IC50 (nM) was determined by curve fitting software XLfit (IDBS).
(§4) Cell survival rate (%)=T/C×100
(§5) T: emission intensity in a well cultured for 3 days after addition of a test compound solution
(§6) C: emission intensity in a well cultured for 3 days after addition of DMSO
(§7) In accordance with the same procedures as shown in Test Example 2, the compounds of the present invention were tested for their inhibitory activity against the growth of the cell hoes expressing wild-type and mutated EGFRs.

[2] = target: T1, human EGFR (d746-750/T790M/C797S) (Homo sapiens, UniProt P00533, C797S/DEL746-750/T790M); experiment: Inhibitory activity against EGFR (d746-750/T790M/C797S) kinase; assay type: biochemical; settings: Test Example 1, Table 2; ATP 6 μM, 25° C., 120 minutes
T1 construct: made in house; host or cells: Sf9 insect cells, baculovirus
T1 sequence (P00533 with tags, fused parts or gaps DEL746-750/T790M/C797S): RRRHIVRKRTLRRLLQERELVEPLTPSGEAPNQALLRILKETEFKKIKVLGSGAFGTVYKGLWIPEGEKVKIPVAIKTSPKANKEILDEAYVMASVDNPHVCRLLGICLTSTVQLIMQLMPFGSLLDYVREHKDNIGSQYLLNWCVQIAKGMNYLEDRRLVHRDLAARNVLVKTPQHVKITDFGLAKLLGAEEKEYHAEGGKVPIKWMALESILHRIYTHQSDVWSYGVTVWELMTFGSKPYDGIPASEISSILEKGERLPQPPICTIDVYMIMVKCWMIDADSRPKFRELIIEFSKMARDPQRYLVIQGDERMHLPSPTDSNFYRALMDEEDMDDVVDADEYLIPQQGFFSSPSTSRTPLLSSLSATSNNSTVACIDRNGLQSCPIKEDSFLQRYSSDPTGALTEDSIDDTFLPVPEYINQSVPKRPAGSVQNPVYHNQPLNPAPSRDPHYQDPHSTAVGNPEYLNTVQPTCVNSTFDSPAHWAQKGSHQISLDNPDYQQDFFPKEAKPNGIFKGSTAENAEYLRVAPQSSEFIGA
In short: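 GST-fused cytoplasmic domain of human EGFR d746-750/T790M/C797S (Sf9-expressed) was incubated with 250 nM biotinylated peptide, 6 μM ATP, 10 mM MgCl2 and 10 mM MnCl2 (2.5% DMSO) for 120 min at 25 °C. After an EDTA stop, phosphotyrosine was detected by Eu-PT66/SureLight APC-SA TR-FRET (665/620 nm, excitation 337 nm). Background wells received EDTA before enzyme.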

[3] = target: Ba/F3-EGFR (L858R/T790M/C797S) (Homo sapiens, UniProt P00533, T790M/C797S/L858R, cells depend on it); experiment: Growth inhibition of cell line expressing EGFR (L858R/T790M/C797S); assay type: cell-based, mouse; settings: read-out: BaF3_EGFR (L858R/T790M/C797S) IC50 value
Ba/F3-EGFR (L858R/T790M/C797S), sequence (P00533 whole entry T790M/C797S/L858R): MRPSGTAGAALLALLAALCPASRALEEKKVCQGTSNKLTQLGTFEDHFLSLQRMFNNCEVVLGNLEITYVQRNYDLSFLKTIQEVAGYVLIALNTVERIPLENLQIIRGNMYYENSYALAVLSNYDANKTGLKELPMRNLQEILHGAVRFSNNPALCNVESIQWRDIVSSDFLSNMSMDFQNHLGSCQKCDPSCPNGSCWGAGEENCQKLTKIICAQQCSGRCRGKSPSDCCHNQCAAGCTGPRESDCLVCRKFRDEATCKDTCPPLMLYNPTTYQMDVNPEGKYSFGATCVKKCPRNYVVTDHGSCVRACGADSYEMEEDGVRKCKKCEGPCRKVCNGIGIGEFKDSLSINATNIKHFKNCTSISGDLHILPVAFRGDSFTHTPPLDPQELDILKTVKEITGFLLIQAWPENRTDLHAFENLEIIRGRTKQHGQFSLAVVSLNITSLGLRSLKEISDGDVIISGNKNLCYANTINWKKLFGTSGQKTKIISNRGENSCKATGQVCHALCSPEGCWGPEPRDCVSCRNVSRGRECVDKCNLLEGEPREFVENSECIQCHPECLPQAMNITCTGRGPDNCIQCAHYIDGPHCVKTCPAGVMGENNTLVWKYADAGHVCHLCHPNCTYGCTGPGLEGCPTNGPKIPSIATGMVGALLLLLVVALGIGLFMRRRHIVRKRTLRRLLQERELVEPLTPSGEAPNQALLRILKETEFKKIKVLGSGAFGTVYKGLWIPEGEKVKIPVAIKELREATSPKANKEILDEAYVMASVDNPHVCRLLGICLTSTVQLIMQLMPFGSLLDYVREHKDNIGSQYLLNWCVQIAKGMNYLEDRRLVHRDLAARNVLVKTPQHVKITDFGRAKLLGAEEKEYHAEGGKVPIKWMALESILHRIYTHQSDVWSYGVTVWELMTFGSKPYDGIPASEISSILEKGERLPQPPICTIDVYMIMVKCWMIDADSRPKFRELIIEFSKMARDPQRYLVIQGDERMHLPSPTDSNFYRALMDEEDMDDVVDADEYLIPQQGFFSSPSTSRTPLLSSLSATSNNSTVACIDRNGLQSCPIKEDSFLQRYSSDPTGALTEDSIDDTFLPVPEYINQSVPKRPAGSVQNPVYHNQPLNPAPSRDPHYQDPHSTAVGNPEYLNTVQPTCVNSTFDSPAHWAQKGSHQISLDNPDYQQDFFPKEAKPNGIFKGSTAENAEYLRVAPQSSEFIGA
Excerpt: as §1, §2, §3, §4, §5, §6, §7

[4] = Test Example 4, Table 13, same procedures as Test Example 2
[5] = Test Example 2, Table 7, culture 3 days, EGF 50 ng/ml, CellTiter-Glo
[6] = Test Example 2, Table 7, culture 3 days, CellTiter-Glo

Ba/F3-EGFR (WT), sequence (P00533 whole entry, stated change not applied): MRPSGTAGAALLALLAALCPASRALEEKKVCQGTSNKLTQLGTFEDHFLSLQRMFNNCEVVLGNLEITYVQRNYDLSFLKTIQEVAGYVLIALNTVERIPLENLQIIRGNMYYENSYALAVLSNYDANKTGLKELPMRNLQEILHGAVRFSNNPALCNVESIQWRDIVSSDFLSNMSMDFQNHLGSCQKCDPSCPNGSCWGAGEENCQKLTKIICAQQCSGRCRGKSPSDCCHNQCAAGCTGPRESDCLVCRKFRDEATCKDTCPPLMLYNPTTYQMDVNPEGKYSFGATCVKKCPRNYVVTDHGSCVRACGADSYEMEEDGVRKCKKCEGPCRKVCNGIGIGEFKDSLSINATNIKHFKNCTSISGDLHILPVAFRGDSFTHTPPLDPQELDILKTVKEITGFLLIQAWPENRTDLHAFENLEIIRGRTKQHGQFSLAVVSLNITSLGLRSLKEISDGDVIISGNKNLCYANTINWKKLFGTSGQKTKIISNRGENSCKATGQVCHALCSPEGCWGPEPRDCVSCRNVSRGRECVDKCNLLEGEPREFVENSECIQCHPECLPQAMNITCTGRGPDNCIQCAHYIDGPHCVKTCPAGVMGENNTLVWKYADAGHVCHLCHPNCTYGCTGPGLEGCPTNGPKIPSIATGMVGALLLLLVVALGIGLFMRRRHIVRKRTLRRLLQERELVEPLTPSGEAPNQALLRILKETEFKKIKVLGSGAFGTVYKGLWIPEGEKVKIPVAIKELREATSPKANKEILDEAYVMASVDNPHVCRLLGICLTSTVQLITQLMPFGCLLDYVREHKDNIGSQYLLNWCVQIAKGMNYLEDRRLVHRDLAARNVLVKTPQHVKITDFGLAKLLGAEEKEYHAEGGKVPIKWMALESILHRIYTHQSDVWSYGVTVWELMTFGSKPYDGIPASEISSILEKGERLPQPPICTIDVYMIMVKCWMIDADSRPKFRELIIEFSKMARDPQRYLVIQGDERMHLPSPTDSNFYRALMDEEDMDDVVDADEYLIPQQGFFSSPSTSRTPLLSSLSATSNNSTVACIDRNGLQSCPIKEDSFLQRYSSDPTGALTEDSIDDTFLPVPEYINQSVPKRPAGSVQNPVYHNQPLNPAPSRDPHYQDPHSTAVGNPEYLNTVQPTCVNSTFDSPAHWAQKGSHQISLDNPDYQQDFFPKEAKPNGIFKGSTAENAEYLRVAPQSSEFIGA

| Structure (SMILES) | GI50 [1, 4] [nM] | pIC50 [2] | GI50 [3, 4] [nM] | GI50 [1, 5] [nM] | GI50 [3, 6] [nM] |
| --- | --- | --- | --- | --- | --- |
| C#Cc1c(-c2cnc3ccccc3c2)c2c(N)ncnc2n1C12CCC(NC(C)=O)(CC1)C2 [Example 39, N-(4-(4-Amino-6-ethynyl-5-(quinolin-3-yl)-7H-pyrrolo[2,3-d]pyrimidin-7-yl)-bicyclo-[2.2.1]heptan-1-yl)acetamide] | 2360 | > 9.52 | 658 |  |  |
| C#Cc1c(-c2cnc3ccccc3c2)c2c(N)ncnc2n1[C@@H]1CCN(C(=O)C=C)C1 [Comparative Example B, (R)-1-(3-(4-Amino-6-ethynyl-5-(quinolin-3-yl)-7H-pyrrolo[2,3-d]pyrimidin-7-yl) -pyrrolidin-1-yl)-prop-2-en-1-one, reference compound] |  | 7.59 |  | 1050 | 3590 |
| C#Cc1c(-c2cnc3ccccc3c2)c2c(N)ncnc2n1C12CCC(NC(=O)c3cccnn3)(CC1)C2 [Example 49] |  | > 9.52 |  | 3070 | 290 |

The remaining lines, values ahead:

| GI50 [1, 4] [nM] | pIC50 [2] | GI50 [3, 4] [nM] | GI50 [1, 5] [nM] | GI50 [3, 6] [nM] | Structure (SMILES) |
| --- | --- | --- | --- | --- | --- |
| 3190 | > 9.52 | 649 |  |  | C#Cc1c(-c2cnc3ccccc3c2)c2c(N)ncnc2n1C12CCC(NC(=O)c3nccn3C)(CC1)C2 [Example 23, N-(4-(4-Amino-6-ethynyl-5-(quinolin-3-yl)-7H-pyrrolo[2,3-d]pyrimidin-7-yl)bicyclo-[2.2.1]heptan-1-yl)-1-methyl-1H-imidazole-2-carboxamide] |
| > 2000 | > 9.52 | 448 |  |  | C#Cc1c(-c2cnc3ccccc3c2)c2c(N)ncnc2n1C12CCC(NC(=O)c3noc(C)n3)(CC1)C2 [Example 36, N-(4-(4-Amino-6-ethynyl-5-(quinolin-3-yl)-7H-pyrrolo[2,3-d]pyrimidin-7-yl)-bicyclo-[2.2.1]heptan-1-yl)-5-methyl-1,2,4-oxadiazole-3-carboxamide] |
|  | > 9.52 |  | 2490 | 223 | C#Cc1c(-c2cnc3ccccc3c2)c2c(N)ncnc2n1C12CCC(NC(=O)c3cnccn3)(CC1)C2 [Example 48] |
